Measured values: article PMC9699089 (Pathogens, 2022)

Key:
[1] = Cytotoxicity evaluation, MTT assay; format: cell-based, human; settings: human
Experimental: These cells are a commonly used human hepatocarcinoma-derived cell line that has characteristics similar to those of primary hepatocytes. These cells express many hepatocyte-specific metabolic enzymes, thus enabling the cytotoxicity of tested product metabolites to be evaluated. […] Duplicate assays were performed for each sample. Each well was microscopically examined for precipitate formation before the medium was aspirated from the wells. After aspiration, 100 µL of MTT solution (0.5 mg/mL in medium without FCS) were then added to each well. […] The MTT solution was removed, and DMSO (100 µL) was added to dissolve the resulting blue formazan crystals. Plates were shaken vigorously (300 rpm) for 5 min. The absorbance was measured at 570 nm with 630 nm as reference wavelength in a BIO-TEK ELx808 Absorbance Microplate Reader. DMSO was used as blank and doxorubicin (Sigma Aldrich) as positive control. Cell viability was calculated as percentage of control (cells incubated without compound). The CC50 was determined from the dose-response curve using TableCurve 2D V5.0 software (Systat Software, Palo Alto, CA, USA).

[2] = test system: Plasmodium falciparum CQ-resistant strain W2; experiment: In vitro antiplasmodial activity, SYBR Green I fluorescence-based method, strain W2; format: cell-based; settings: CQ-resistant strain W2, 48 h incubation, mean of three independent experiments, read-out: P. falciparum Strains IC50 Values W2
Experimental: (§1) The in vitro antiplasmodial activities were tested over concentrations ranging from 39 nM to 40 µM against culture-adapted Plasmodium falciparum reference strains 3D7 and W2. […] These two strains are obtained from the collection of the National Museum of Natural History (Paris, France). The parasites were cultivated in RPMI medium (Sigma Aldrich, Lyon, France) supplemented with 0.5% Albumax I (Life Technologies Corporation, Paisley, UK), hypoxanthine (Sigma Aldrich), and gentamicin (Sigma Aldrich) with human erythrocytes and were incubated at 37 °C in a candle jar, as described previously. The P. falciparum drug susceptibility test was carried out in 96-well flat bottom sterile plates in a final volume of 250 µL. After 48 h incubation period with the drugs, quantities of DNA in treated and control cultures of parasites in human erythrocytes were quantified using the SYBR Green I (Sigma Aldrich) fluorescence-based method. Briefly, after incubation, plates were frozen at -20 °C until use. Plates were then thawed for 2 h at room temperature, and 100 µL of each homogenized culture was transferred to a well of a 96-well flat bottom sterile black plate (Nunc, Inc.) that contained 100 µL of the SYBR Green I lysis buffer (2xSYBR Green, 20 mM Tris base pH 7.5, 5 mM EDTA, 0.008% w/v saponin, 0.08% w/v Triton X-100). […] Plates were incubated for 1 h at room temperature and then read on a fluorescence plate reader (Tecan, Austria) using excitation and emission wavelengths of 485 and 535 nm, respectively.

[3] = test system: L. donovani (MHOM/IN/00/DEVI) promastigotes; experiment: In vitro antileishmanial activity on promastigotes, MTT assay; format: cell-based; settings: Leishmania donovani, 72 h incubation, mean +/- SD of three independent experiments
Experimental: L. donovani (MHOM/IN/00/DEVI) used in this study was provided by the CNR Leishmania (Montpellier, France). The effects of the tested compounds on the growth of L. donovani (MHOM/IN/00/DEVI) promastigotes were assessed by MTT assay. Briefly, promastigotes in log-phase in Schneider’s medium supplemented with 20% fetal calf serum (FCS), 2 mM L-glutamine and antibiotics (100 U/mL penicillin and 100 µg/mL streptomycin), were incubated at an average density of 10^6 parasites/mL in sterile 96-well plates with various concentrations of compounds previously dissolved in DMSO (final concentration less than 0.5% v/v), in duplicate. […] Duplicate assays were performed for each sample. After the 72 h incubation period at 27 °C, parasite metabolic activity was determined. Each well was microscopically examined for precipitate formation. To each well was added 10 µL of 10 mg/mL MTT [3-(4,5-dimethylthiazol-2-yl)-2,5-diphenyltetrazolium bromide)] solution followed by 4 h incubation time. The enzyme reaction was stopped by addition of 100 µL of 50% isopropanol/10% sodium dodecyl sulfate. Plates were vigorously shaken (300 rpm) for 10 min, and the absorbance was measured at 570 nm with 630 nm as reference wavelength in a BIOTEK ELx808 Absorbance Microplate Reader (Agilent Technologies, Les Ulis, France). […] IC50 of the parasite’s growth (half maximal inhibitory concentration or IC50 values) were then calculated from the obtained experimental results using a previously described regression program. IC50 values were calculated from three independent experiments.

[4] = test system: Plasmodium telomeric sequence FPf8T G-quadruplex; experiment: FRET melting assay, FPf8T; format: binding, Plasmodium falciparum; settings: compound 2 μM, oligonucleotide 0.2 μM, K+ conditions
Experimental: (§2) These were performed with dual-labeled oligonucleotides mimicking the Plasmodium telomeric sequences FPf1T [FAM-5′(GGGTTTA)3-GGG3′-TAMRA] and FPf8T [FAM-5′(GGGTTCA)3GGG3′-TAMRA], the Trypanosoma 9 and 11 chromosomic sequence FTrypBT (also named FEBR1T) [FAM-5′[…]3′-TAMRA], the human telomeric sequence F21T [FAM-(GGGTTA)3-GGG3′-TAMRA] and the human duplex sequence FdxT [FAM5′-[…]-hexaethyleneglycol-[…]3′-TAMRA] [27, 31, 47]. The oligonucleotides were pre-folded in 10 mM lithium cacodylate buffer (pH 7.2), with 10 mM KCl and 90 mM LiCl (K^+ condition). The FAM emissions were recorded at 516 nm using a 492-nm excitation wavelength in the absence and presence of a single compound as a function of temperature (25 to 95 °C) in 96-well microplates using a Stratagene MX3000P real-time PCR device at a rate of 1 °C∙min-1. Data were normalized between 0 and 1, and the required temperature for half-denaturation of oligonucleotides corresponding to the emission value of 0.5 was taken as the Tm. Each experiment was performed in duplicate with 0.2 µM of labeled oligonucleotide and 2 µM of compound under K^+ condition. For each compound, three independent experiments were carried out.

[5] = test system: T. brucei brucei AnTat 1.9; experiment: In vitro antitrypanosomal activity, Alamar Blue assay; format: cell-based, Trypanosoma brucei brucei; settings: Trypanosoma brucei, slender bloodstream trypomastigotes, AnTat 1.9 strain; mean +/- SD of three independent experiments; read-out: Trypanosoma brucei brucei IC50 Values Trypanos Antat 1.9
Experimental: The effects of the tested compounds on the growth of T. brucei brucei were assessed using an Alamar Blue® assay described by Räz et al. T. brucei brucei AnTat 1.9 ([…], Belgium) was cultured in MEM with Earle's salts, supplemented according to the protocol of Baltz et al. […] All doses were tested in duplicate. Appropriate controls treated with solvents 0.9% NaCl or DMSO or with suramin, pentamidine, eflornithine, and fexinidazole (reference drugs purchased from Sigma Aldrich and Fluorochem, UK) were added to each set of experiments. After 69 h incubation period at 37 °C, 10 μL of the viability marker Alamar Blue (Fisher) was added to each well, and the plates were incubated for 5 h. The plates were read in a PerkinElmer ENSPIRE (Germany) microplate reader using an excitation wavelength of 530 nm and an emission wavelength of 590 nm.

[6] = test system: Plasmodium telomeric sequence FPf1T G-quadruplex; experiment: FRET melting assay, FPf1T; format: binding, Plasmodium falciparum; settings: compound 2 μM, oligonucleotide 0.2 μM, K+ conditions
Experimental: as §2

[7] = test system: human telomeric sequence F21T G-quadruplex; experiment: FRET melting assay, F21T; format: binding; settings: compound 2 μM, oligonucleotide 0.2 μM, K+ conditions
Experimental: as §2

[8] = test system: Plasmodium falciparum CQ-sensitive strain 3D7; experiment: In vitro antiplasmodial activity, SYBR Green I fluorescence-based method, strain 3D7; format: cell-based; settings: CQ-sensitive strain 3D7, 48 h incubation, mean of three independent experiments, read-out: P. falciparum Strains IC50 Values 3D7
Experimental: as §1

[9] = test system: Trypanosoma 9 and 11 chromosomic sequence FTrypBT (FEBR1T) G-quadruplex; experiment: FRET melting assay, FtrypBT; format: binding, Trypanosoma brucei brucei; settings: compound 2 μM, oligonucleotide 0.2 μM, K+ conditions
Experimental: as §2

[10] = test system: human duplex sequence FdxT; experiment: FRET melting assay, duplex control FdxT; format: binding; settings: compound 2 μM, oligonucleotide 0.2 μM, K+ conditions
Experimental: as §2

CN(C)CCCNCc1cc(-c2ccccc2)c2ccc3c(-c4ccccc4)cc(CNCCCN(C)C)nc3c2n1 [Compound 1b, 2,9-Bis[(3-dimethylaminopropyl)aminomethyl]-4,7-diphenyl-1,10-phenanthroline]
CC50 at 72 h [1]: 5960 ± 200 nM
IC50 [2]: 6130 ± 1630 nM
IC50 [3]: > 12500 nM
ΔTm FPf8T [4]: 7.9 °C
IC50 [5]: 570 ± 70 nM
ΔTm FPf1T [6]: 7.4 °C
ΔTm F21T [7]: 12.8 °C
IC50 [8]: 21200 ± 7720 nM
ΔTm FtrypBT [9]: 8.7 °C
ΔTm FdxT [10]: −0.3 °C

CN1CCN(CCNCc2cc(-c3ccccc3)c3ccc4c(-c5ccccc5)cc(CNCCN5CCN(C)CC5)nc4c3n2)CC1 [Compound 1e]
CC50 at 72 h [1]: 10500 ± 1270 nM
IC50 [2]: 920 ± 180 nM
IC50 [3]: > 12500 nM
ΔTm FPf8T [4]: 10.5 °C
IC50 [5]: 450 ± 30 nM
ΔTm FPf1T [6]: 9.4 °C
ΔTm F21T [7]: 9.6 °C
IC50 [8]: 2160 ± 320 nM
ΔTm FtrypBT [9]: 8.0 °C
ΔTm FdxT [10]: −1.6 °C

CN1CCN(CCCNCc2cc(-c3ccccc3)c3ccc4c(-c5ccccc5)cc(CNCCCN5CCN(C)CC5)nc4c3n2)CC1 [Compound 1f]
CC50 at 72 h [1]: 8620 ± 500 nM
IC50 [2]: 11300 ± 2930 nM
IC50 [3]: > 12500 nM
ΔTm FPf8T [4]: 10.9 °C
IC50 [5]: 970 ± 110 nM
ΔTm FPf1T [6]: 8.8 °C
ΔTm F21T [7]: 10.8 °C
IC50 [8]: 21500 ± 4100 nM
ΔTm FtrypBT [9]: 9.1 °C
ΔTm FdxT [10]: −0.5 °C

CN1CCN(CCCCNCc2cc(-c3ccccc3)c3ccc4c(-c5ccccc5)cc(CNCCCCN5CCN(C)CC5)nc4c3n2)CC1 [Compound 1g]
CC50 at 72 h [1]: 16800 ± 600 nM
IC50 [2]: 2480 ± 490 nM
IC50 [3]: > 12500 nM
ΔTm FPf8T [4]: 14.5 °C
IC50 [5]: 960 ± 130 nM
ΔTm FPf1T [6]: 13.4 °C
ΔTm F21T [7]: 11.2 °C
IC50 [8]: 8190 ± 3530 nM
ΔTm FtrypBT [9]: 12.2 °C
ΔTm FdxT [10]: −0.5 °C

c1ccc(-c2cc(CNCCN3CCOCC3)nc3c2ccc2c(-c4ccccc4)cc(CNCCN4CCOCC4)nc23)cc1 [Compound 1h]
CC50 at 72 h [1]: 5890 ± 530 nM
IC50 [2]: 170 ± 50 nM
IC50 [3]: 4500 ± 2200 nM
ΔTm FPf8T [4]: 1.9 °C
IC50 [5]: 220 ± 60 nM
ΔTm FPf1T [6]: 1.8 °C
ΔTm F21T [7]: 2.0 °C
IC50 [8]: 670 ± 210 nM
ΔTm FtrypBT [9]: 2.2 °C
ΔTm FdxT [10]: −0.9 °C

c1ccc(-c2cc(CNCCCN3CCOCC3)nc3c2ccc2c(-c4ccccc4)cc(CNCCCN4CCOCC4)nc23)cc1 [Compound 1i]
CC50 at 72 h [1]: 6290 ± 1060 nM
IC50 [2]: 40 ± 10 nM
IC50 [3]: > 12500 nM
ΔTm FPf8T [4]: 6.7 °C
IC50 [5]: 290 ± 20 nM
ΔTm FPf1T [6]: 6.7 °C
ΔTm F21T [7]: 8.2 °C
IC50 [8]: 1450 ± 580 nM
ΔTm FtrypBT [9]: 6.0 °C
ΔTm FdxT [10]: −1.5 °C

c1ccc(-c2cc(CNCCN3CCCCC3)nc3c2ccc2c(-c4ccccc4)cc(CNCCN4CCCCC4)nc23)cc1 [Compound 1j]
CC50 at 72 h [1]: 1640 ± 140 nM
IC50 [2]: 2600 ± 550 nM
IC50 [3]: 2520 ± 200 nM
ΔTm FPf8T [4]: 7.3 °C
IC50 [5]: 200 ± 20 nM
ΔTm FPf1T [6]: 5.6 °C
ΔTm F21T [7]: 7.7 °C
IC50 [8]: 1590 ± 590 nM
ΔTm FtrypBT [9]: 7.2 °C
ΔTm FdxT [10]: 0.2 °C

c1ccc(-c2cc(CNCCCN3CCCCC3)nc3c2ccc2c(-c4ccccc4)cc(CNCCCN4CCCCC4)nc23)cc1 [Compound 1k]
CC50 at 72 h [1]: 4290 ± 520 nM
IC50 [2]: 1650 ± 360 nM
IC50 [3]: > 12500 nM
ΔTm FPf8T [4]: 14.0 °C
IC50 [5]: 770 ± 100 nM
ΔTm FPf1T [6]: 12.8 °C
ΔTm F21T [7]: 12.0 °C
IC50 [8]: 3180 ± 680 nM
ΔTm FtrypBT [9]: 8.3 °C
ΔTm FdxT [10]: 0.4 °C

c1ccc(-c2cc(CNCCc3cccnc3)nc3c2ccc2c(-c4ccccc4)cc(CNCCc4cccnc4)nc23)cc1 [Compound 1n]
CC50 at 72 h [1]: 3100 ± 190 nM
IC50 [2]: 2540 ± 360 nM
IC50 [3]: 2670 ± 800 nM
ΔTm FPf8T [4]: 5.3 °C
IC50 [5]: 430 ± 30 nM
ΔTm FPf1T [6]: 2.9 °C
ΔTm F21T [7]: 4.6 °C
IC50 [8]: 710 ± 110 nM
ΔTm FtrypBT [9]: 5.2 °C
ΔTm FdxT [10]: −0.3 °C
